Eight compounds from ChEMBL document CHEMBL6103565, “Current strategies in design and synthesis of antifungals hybrid and chimeric diazine derivatives” (Bioorg Med Chem, 2025) can be followed below.

Each structure is given as a SMILES string. ≈ marks a conversion by molar mass, not a printed value. Where only a bound is given, the exact number is not on record here.

Common to all, as to assay type: functional
The subject of assay [1] is Candida albicans. Nature of the assay: Antifungal activity against Candida albicans.
The subject of assay [2] is Aspergillus fumigatus. Nature of the assay: Antifungal activity against Aspergillus fumigatus.
Assay [3] concerns Aspergillus fumigatus. The assay is described as follows: Antifungal activity against Aspergillus fumigatus assessed as reduction in fungal growth incubated for 20 to 24 hrs by CLSI based micro-dilution analysis. The conditions noted are these: time 20-24 hrs.
Assay [4] concerns Candida albicans. The assay is described as follows: Antifungal activity against Candida albicans ATCC 90028 assessed as diameter of zone of inhibition.
Assay [5] deals with Nakaseomyces glabratus. Nature of the assay: Antifungal activity against Candida glabrata ATCC 90030 assessed as reduction in microbial growth.
For assay [6], the system named is Nakaseomyces glabratus. Nature of the assay: Antifungal activity against Candida glabrata ATCC 90030 assessed as diameter of zone of inhibition.
Assay [7] deals with Candida albicans. Nature of the assay: Antifungal activity against Candida albicans ATCC 90028 assessed as reduction in microbial growth.
The subject of assay [8] is Candida tropicalis. Nature of the assay: Antifungal activity against Candida tropicalis ATCC 750 assessed as diameter of zone of inhibition.
Assay [9] concerns Candida tropicalis. Nature of the assay: Antifungal activity against Candida tropicalis ATCC 750 assessed as reduction in microbial growth.
Another assay has as its system Fusarium graminearum. Nature of the assay: Fungicidal activity against Gibberella zeae assessed as fungal inhibitory rate at 200 ug/ml relative to control.
Another assay relates to Botryosphaeria dothidea. The assay is described as follows: Fungicidal activity against Botryosphaeria dothidea assessed as fungal inhibitory rate at 200 ug/ml relative to control.
Another assay deals with Sclerotinia sclerotiorum. The assay is described as follows: Fungicidal activity against Sclerotinia sclerotiorum assessed as fungal inhibitory rate at 200 ug/ml relative to control.
In a further assay the test system is Pichia kudriavzevii. Nature of the assay: Antifungal activity against Candida krusei ATCC 6258.
In another assay the test system is Candida parapsilosis. Nature of the assay: Antifungal activity against Candida parapsilosis ATCC 22019. The conditions noted are these: Lodderomyces parapsilosis.
Assay [10] concerns Nakaseomyces glabratus. Nature of the assay: Antifungal activity against Candida glabrata ATCC 90030.
Assay [11] has as its system Candida albicans. Nature of the assay: Antifungal activity against Candida albicans RCMB 005036 assessed as diameter of zone inhibition.
The subject of assay [12] is Candida albicans. The assay is described as follows: Antifungal activity against Candida albicans ATCC 10231.
Assay [13] relates to Aspergillus fumigatus. Nature of the assay: Antifungal activity against Aspergillus fumigatus RCMB 002568 assessed as diameter of zone inhibition.
In assay [14] the test system is Syncephalastrum racemosum. Nature of the assay: Antifungal activity against Syncephalastrum racemosum assessed as zone of inhibition.
The subject of assay [15] is Aspergillus flavus. Nature of the assay: Antimicrobial activity against Aspergillus flavus assessed as zone of inhibition.
Assay [16] deals with Cryptococcus neoformans. The assay is described as follows: Antifungal activity against Cryptococcus neoformans assessed as reduction in fungal growth incubated for 24 hrs by broth microdilution method.
In assay [17] the test system is Aspergillus fumigatus. Nature of the assay: Antifungal activity against Aspergillus fumigatus assessed as zone of inhibition.
Assay [18] concerns Candida albicans. The assay is described as follows: Antifungal activity against azole-resistant Candida albicans ATCC 10231 assessed as fungal growth inhibition incubated for 24 hrs by CLSI protocol based broth microdilution method.
In assay [19] the test system is Candida albicans. The assay is described as follows: Antifungal activity against azole-resistant Candida albicans ATCC 10231 assessed as reduction in fungal growth by XTT assay.
In assay [20] the test system is Candida albicans. Nature of the assay: Antifungal activity against azole-resistant Candida albicans ATCC 18804 assessed as reduction in fungal growth by XTT assay.
Assay [21] relates to Aspergillus niger. Nature of the assay: Antifungal activity against Aspergillus niger assessed as zone of inhibition by disc diffusion method.
Assay [22] relates to Aspergillus fumigatus. Nature of the assay: Antifungal activity against Aspergillus fumigatus assessed as reduction in fungal growth incubated for 72 hrs by agar well diffusion method.
Assay [23] relates to Candida albicans. Nature of the assay: Antifungal activity against azole-resistant Candida albicans ATCC 18804 assessed as fungal growth inhibition incubated for 24 hrs by CLSI protocol based broth microdilution method.
For assay [24], the system named is Candida albicans. The assay is described as follows: Antifungal activity against Candida albicans assessed as reduction in fungal growth incubated for 72 hrs by agar well diffusion method.
The test system of assay [25] is Candida albicans. Nature of the assay: Antimicrobial activity against Candida albicans ATCC 64124 assessed as reduction in microbial growth by CLSI protocol based micro-broth dilution method.
The subject of another assay is Trichophyton rubrum. The assay is described as follows: Antifungal activity against Trichophyton rubrum assessed as diameter of zone inhibition.
The next assay has as its system Geotrichum candidum. The assay is described as follows: Antifungal activity against Geotrichum candidum.
Assay [26] has as its system Cryptococcus neoformans. Nature of the assay: Antifungal activity against Cryptococcus neoformans.
Another assay relates to Microsporum audouinii. Nature of the assay: Antifungal activity against Microsporum audouinii.
In assay [27] the test system is Aspergillus niger. Nature of the assay: Antifungal activity against Aspergillus niger assessed as zone of inhibition.
Assay [28] concerns Aspergillus flavus. The assay is described as follows: Antifungal activity against Aspergillus flavus assessed as zone of inhibition by disc diffusion method.
Assay [29] has as its system Candida albicans. The assay is described as follows: Antifungal activity against Candida albicans assessed as reduction in fungal growth incubated for 18 hrs by broth microdilution method.
Assay [30] has as its system Saccharomyces cerevisiae. The assay is described as follows: Antimicrobial activity against Saccharomyces cerevisiae assessed as zone of inhibition.
Assay [31] deals with Candida albicans. Nature of the assay: Antifungal activity against Candida albicans assessed as diameter of inhibition zone.
Assay [32] relates to Candida albicans. The assay is described as follows: Antifungal activity against Candida albicans assessed as zone of inhibition.
For assay [33], the system named is Aspergillus fumigatus. The assay is described as follows: Antifungal activity against Aspergillus fumigatus assessed as reduction in fungal growth.
Assay [34] concerns Candida albicans. The assay is described as follows: Antifungal activity against Candida albicans SC5314 assessed as reduction in fungal growth incubated for 72 hrs by broth microdilution method.
Another assay relates to Rhizopus microsporus. Nature of the assay: Antifungal activity against Rhizopus microsporus assessed as diameter of inhibition zone.
Assay [35] deals with Candida albicans. The assay is described as follows: Antifungal activity against Candida albicans assessed as zone of inhibition by serial dilution and disc diffusion method.
Assay [36] deals with Candida albicans. The assay is described as follows: Antifungal activity against Candida albicans assessed as zone of inhibition by disc diffusion method.
Assay [37] relates to Saccharomyces cerevisiae. The assay is described as follows: Antimicrobial activity against Saccharomyces cerevisiae assessed as zone of inhibition by disc diffusion method.

For `Cc1cc(Nc2ccc(=O)n(-c3ccccc3)n2)no1`, the minimal inhibitory concentration (MIC) in the assay on Candida albicans [1] and against Aspergillus fumigatus [2] was 18 µg/mL (≈ 67.1 µM) throughout.
Consider `OC[C@H]1O[C@@H](Sc2nnc(Cc3ccc4ccc5cccc6ccc3c4c56)c3ccccc23)[C@H](O)[C@H]1O`, for which, in the assay on Aspergillus fumigatus [3], the MIC is 17 µg/mL (≈ 33.4 µM).
Take `Cc1ccc(C2C3=C(N=C4SC=CN42)[C@@]2(C)CC[C@H]4[C@@H](CC=C5C[C@@H](O)CC[C@@]54C)[C@@H]2C3)cc1` (some centres undefined): the “inhibition zone (IZ)” value in the assay on Candida albicans [4] came to 13 mm; in the assay on Nakaseomyces glabratus [6] it was 15 mm; in the assay on Candida tropicalis [8] it was 15 mm. Further, the minimal inhibitory concentration (MIC) with Nakaseomyces glabratus [5] is above 1000 µg/mL; in the assay with Candida albicans [7] it was 700 µg/mL; in the assay on Candida tropicalis [9], above 1000 µg/mL.
On to `Cc1ncc(NC(=O)c2cc(Cl)nn2-c2ncccc2Cl)c(-c2noc(C)n2)n1`, for which the inhibition at 200 µg/mL in the assay on Fusarium graminearum was 54.9%; with Botryosphaeria dothidea it was 85.9%; with Sclerotinia sclerotiorum, 54.1%.
Turning to `CC(=O)N1CCN(c2ccc(OC[C@H]3CO[C@](Cn4ccnc4)(c4ccc(Cl)cc4Cl)O3)cc2)CC1`, the MIC in the assay with Pichia kudriavzevii stood at 0.78 µg/mL (≈ 1.47 µM); against Candida parapsilosis, 0.78 µg/mL (≈ 1.47 µM); in the assay on Nakaseomyces glabratus [10], 0.78 µg/mL (≈ 1.47 µM); with Aspergillus fumigatus [3], 18 µg/mL (≈ 33.9 µM). Moreover, the “inhibition zone (IZ)” value stood at 25 mm in the assay with Candida albicans [11] and 23 mm with Aspergillus fumigatus [13]. In the assay on Candida albicans [12], this compound gave an MIC50 of 0.78 µg/mL (≈ 1.47 µM).
In the case of `C[C@@H]1[C@H](O)[C@@H](C)/C=C/C=C/C=C/C=C/C=C/C=C/C=C/[C@H](O[C@@H]2O[C@H](C)[C@@H](O)[C@H](N)[C@@H]2O)C[C@@H]2O[C@](O)(C[C@@H](O)C[C@@H](O)[C@H](O)CC[C@@H](O)C[C@@H](O)CC(=O)O[C@H]1C)C[C@H](O)[C@H]2C(=O)O` [AMPHOTERICIN B], the “inhibition zone (IZ)” value amounted to 20 mm in [14], 15 mm in the assay on Aspergillus flavus [15], 24 mm in the assay with Aspergillus fumigatus [17] and 17 mm in the assay with Aspergillus niger [21]. Besides, the MIC amounted to 0.39 µg/mL (≈ 0.422 µM) with Cryptococcus neoformans [16]; 1.9 µg/mL (≈ 2.06 µM) in the assay on Candida albicans [18]; 1.9 µg/mL (≈ 2.06 µM) in the assay with Candida albicans [19]; 0.2 µg/mL (≈ 0.216 µM) with Candida albicans [20]; 1.95 µg/mL (≈ 2.11 µM) with Aspergillus fumigatus [22]; 0.2 µg/mL (≈ 0.216 µM) in the assay with Candida albicans [23]. The MIC stood at 3.9 µg/mL (≈ 4.22 µM) with Candida albicans [24] and 1 µg/mL with Candida albicans [25].
With `Clc1ccccc1C(c1ccccc1)(c1ccccc1)n1ccnc1` [CLOTRIMAZOLE], the “inhibition zone (IZ)” value in the assay on Trichophyton rubrum is recorded as 14 mm. The minimum inhibitory concentration (MIC) against Geotrichum candidum worked out at 5 µg/mL (≈ 14.5 µM); against Cryptococcus neoformans [26] it was 2 µg/mL (≈ 5.8 µM); with Microsporum audouinii, 4 µg/mL (≈ 11.6 µM); in the assay with Aspergillus fumigatus [2], 68 µg/mL (≈ 197 µM).
With `OC(Cn1cncn1)(Cn1cncn1)c1ccc(F)cc1F` [FLUCONAZOLE], the “inhibition zone (IZ)” value is reported as 20 mm with Aspergillus niger [27]; 2.9 mm with Aspergillus flavus [28]; 11 mm with Saccharomyces cerevisiae [30]; 10 mm in the assay with Candida albicans [31]; 22 mm with Candida albicans [32]; 12 mm with Rhizopus microsporus. The “inhibition zone (IZ)” value worked out at 24 mm with Candida albicans [35], 2.1 mm in the assay with Candida albicans [36] and 13 mm in the assay on Saccharomyces cerevisiae [37]. Moreover, the minimum inhibitory concentration (MIC) against Pichia kudriavzevii was 0.78 µg/mL (≈ 2.55 µM); against Candida parapsilosis it was 0.78 µg/mL (≈ 2.55 µM); with Cryptococcus neoformans [16], 8 µg/mL (≈ 26.1 µM); with Candida albicans [29] it was 0.125 µg/mL (≈ 0.408 µM); with Nakaseomyces glabratus [10], 0.78 µg/mL (≈ 2.55 µM); in the assay with Aspergillus fumigatus [33], below 212 µg/mL. Also, the MIC was at most 0.25 µg/mL in the assay on Candida albicans [34] and above 64 µg/mL in the assay on Candida albicans [25]. Besides, the MIC50 with Candida albicans [12] is 0.78 µg/mL (≈ 2.55 µM).
